Values quoted from earlier work as cited in patent US10716771B2, “Pharmaceutical composition for preventing or treating immune diseases or inflammatory diseases, containing biguanide derivative compound as active ingredient” (THE CATHOLIC UNIVERSITY OF KOREA INDUSTRY-ACADEMIC …, priority 2013, dated 2020).

Tested on: TNF-α
Conditions: stated as known; cited from earlier work

Question: Which “effect of blocking TNF-α” value does the source give for `CN(C)C(=N)N=C(N)N` [Metformin] here?
Answer: slight effect
